Data published in US6080573A, “Enzymatic oxidation process” (Lever Brothers Company, Division of Conopco, Inc., priority 1996, dated 2000).

What was measured:
Alkaline Phosphatase = assay: ELISA control: binding of unconjugated Alkaline Phosphatase (AP) to peptide-coated plates; conditions: control: Alkaline Phosphatase not conjugated to the dye; plates coated with 1 mg/ml peptide; 30 minutes
Protocol: (§1) For the detection of binding, the enzyme Alkaline Phosphatase (AP, 2.5 mg/ml) was conjugated with the reactive dye Reactive Red 6 (RR6, 1.25 mM), by incubation of the enzyme with the dye during 2 hours, at room temperature in Borate buffer, 0.1 M, 0.15 M NaCl, pH 8.5. The dye thereby becomes covalently linked to the amino groups of the enzyme by its triazine unit. Free dye was separated from the enzyme conjugate by gel filtration (PD-10 column, Pharmacia). Elisa plates (Polysorb, Nunc) were coated overnight with 100 μl of a 1 mg/ml peptide solution in Phosphate buffer, 150 mM NaCl, pH 7.4 (PBS). The peptide coated ELISA plates were blocked with 2% Bovine Serum Albumin (BSA) in PBS for 1 hour, room temperature. The Alkaline Phosphatase--RR6 conjugate (AP-RR6) was then incubated for 1 hour, room temperature, in incubation buffer (0.2 M Tris, 20 mM NaCl, 1% PEG 6000, 5% BSA). The plates were washed plates 3 times with wash buffer (0.2 M Tris, 60 mM Citrate, 0.1 M NaCl, 0.05% Tween) and 3 times with demineralized water. Bound Alkaline Phosphatase (AP) was then detected by incubation with the substrate p-nitro-phenyl-phosphate. […] As a control, Alkaline Phosphatase, not conjugated to the dye, was used.

[1] = ELISA: binding of alkaline phosphatase-Reactive Red 6 conjugate (AP-RR6) to peptide-coated plates; conditions: plates coated with 1 mg/ml peptide, p-nitro-phenyl-phosphate, 30 minutes
Protocol: The specific binding of peptide #1 (NH2-GGSCGYHYQHCGQG-COOH) to the dye Reactive Red 6 was measured (the peptide contains one disuphide bridge through the cysteine residues, sequence of the peptides is given in one letter amino acid codes).
as §1

peroxidase [2] = assay: Peroxidase bleach enhancement: bleaching of red beet solution; assay type: biochemical, Hormographiella species; conditions: conditions as in example 3
Protocol: (§2) Dye bleach experiments were performed using a partially purified peroxidase derived from an Hormographiella species. The enzyme was purified by ultrafiltration from the fermentation broth, followed by ion-exchange chromatography using Q-Sepharose (Pharmacia) at pH 7. Enzyme activity is expressed as ABTS (2,2'-azino-bis(3-ethylbenzothiazoline-6-sulphonic acid) units. One ABTS unit represents the amount of enzyme which oxidizes ABTS, resulting in an increase of 1 optical density at 418 nm. Conditions for the activity assay were 2 mM ABTS, 1 mM H2 O2, 20 mM Tris, pH 9.
(§3) Bleaching experiments were conducted at 25° C. in 20 mM Phosphate buffer, set at pH 9. Added peroxidase activity was 60 ABTS units per millilitre. The peptide GGSCGYHYQHCGQG (one letter amino acid code) was added as a peroxidase enhancer at a concentration of 100 μM. The Reactive Black 5 concentration was 30 μM, and the H2 O2 concentration was 250 μM.
(§4) Bleaching of Reactive Black 5 was monitored by the decrease in optical density at 590 nm. The enhancing activity of the peptide was compared to that of the free amino acid tyrosine. As the peptide contains 2 tyrosine residues, 200 μM of the amino acid was added, as a comparison to 100 μM of peptide.
In order to study the selectivity of the peptide enhanced reaction, the bleaching of a red beet solution with the system was assayed. The extract of red beet is, as with dyes, susceptible the action of peroxidase enhancers. […] Experimental conditions are as in example 3.

peroxidase [3] = assay: Peroxidase bleach enhancement: bleaching of Reactive Black 5; assay type: biochemical, Hormographiella species; conditions: pH 9, 25° C.; for OD reading at 590 nm (Reactive Black 5): tyrosine 200 μM or peptide 100 μM
Protocol: as §2, §3, §4

[4] = Dye transfer prevention: washing a coloured swatch in the presence of a white pick-up swatch with peroxidase; set-up: key to ΔE (colour difference): CIELAB colour difference ΔE vs control swatch without peptide; key to ΔL (whiteness): difference in CIELAB L* (lightness) vs control swatch; conditions: for ΔE (colour difference) / ΔL (whiteness): pH 9, 30 minutes, 40° C., versus control swatch without peptide enhancer; for dye transfer prevention / effect on white swatch: result in words
Protocol: The potential of the enzymatic system to prevent dye transfer was assessed by washing a coloured swatch in the presence of a white pick-up swatch. The experiments were performed in 25 ml Phosphate buffer, pH 9, containing the two swatches of 5×5 cm. The experiments were performed using a partially purified peroxidase derived from an Hormographiella species. Experiments were performed in the presence of 12 ABTS units/ml. The fabrics were agitated in the wash solution (25 ml) for 30 minutes at 40° C. The fabrics were line dried and the reflectance spectra were measured using a Minolta spectrometer. The data thereby obtained was transferred to the CIELAB L*a*b* colour space parameters. In this colour space, L* indicates lightness and a* and b* are the chromaticity coordinates. The colour differences between the control swatch, without addition the peptide enhancer, and the swatches washed in the presence of different concentrations of peptide, were expressed as ΔE, calculated from the following equation: [formula]

Compound | OD 450 nm values, AP (Alkaline Phosphatase) | OD 450 nm values, AP-RR6 [1] | bleaching of red beet solution (optical density) (peroxidase [2]; 0 minutes after incubation) | bleaching of red beet solution (optical density) (peroxidase [2]; 2 minutes after incubation) | bleaching of red beet solution (optical density) (peroxidase [2]; 4 minutes after incubation) | bleaching of red beet solution (optical density) (peroxidase [2]; 6 minutes after incubation) | bleaching of red beet solution (optical density) (peroxidase [2]; 8 minutes after incubation) | bleaching of red beet solution (optical density) (peroxidase [2]; 10 minutes after incubation) | bleaching of red beet solution (optical density) (peroxidase [2]; 12 minutes after incubation) | bleaching of red beet solution (optical density) (peroxidase [2]; 14 minutes after incubation) | OD reading at 590 nm (Reactive Black 5) (peroxidase [3]; 0 minutes after incubation) | OD reading at 590 nm (Reactive Black 5) (peroxidase [3]; 2 minutes after incubation) | OD reading at 590 nm (Reactive Black 5) (peroxidase [3]; 4 minutes after incubation) | OD reading at 590 nm (Reactive Black 5) (peroxidase [3]; 6 minutes after incubation) | OD reading at 590 nm (Reactive Black 5) (peroxidase [3]; 8 minutes after incubation) | OD reading at 590 nm (Reactive Black 5) (peroxidase [3]; 10 minutes after incubation) | OD reading at 590 nm (Reactive Black 5) (peroxidase [3]; 12 minutes after incubation) | OD reading at 590 nm (Reactive Black 5) (peroxidase [3]; 14 minutes after incubation) | ΔE (colour difference) ([4]; 25 μM) | ΔL (whiteness) ([4]; 25 μM) | further results
Val-Gly-Ser-Glu (VGSE; printed: Val-Gly-Ser-Glu) [V--G--S--E] | 0.003 | 0.03 | – | – | – | – | – | – | – | – | – | – | – | – | – | – | – | – | – | – | –
NH2-GGSCGYHYQHCGQG-COOH (H-GGSCGYHYQHCGQG-OH; cysteine pairing not given here) [Peptide #1] | 0.047 | 2.36 | 1.091 | 1.083 | 1.063 | 1.016 | 0.881 | 0.709 | 0.567 | 0.477 | 0.651 | 0.430 | 0.344 | 0.294 | 0.263 | 0.241 | 0.227 | 0.216 | 2.46 | 2.40 | reaction enhancement over tyrosine, red beet solution (peroxidase [2]; result in words): there is not reaction enhancement of the peptide over tyrosine; bleaching activity of the peroxidase in the presence of the peptide (peroxidase [3]; result in words): enhanced bleaching activity; ΔE (colour difference) ([4]; 50 μM): 2.85; ΔL (whiteness) ([4]; 50 μM): 2.80; ΔE (colour difference) ([4]; 100 μM): 3.62; ΔL (whiteness) ([4]; 100 μM): 3.50; dye transfer prevention / effect on white swatch [4]: clear dye transfer prevention benefit, resulting in a lighter white swatch
Lys-Lys-Lys [Lys--Lys--Lys] | 0.023 | 0.31 | – | – | – | – | – | – | – | – | – | – | – | – | – | – | – | – | – | – | –
Arg-Arg [Arg--Arg] | 0.003 | 0.09 | – | – | – | – | – | – | – | – | – | – | – | – | – | – | – | – | – | – | –
N[C@@H](Cc1ccc(O)cc1)C(=O)O [tyrosine] | – | – | 1.082 | 1.076 | 1.06 | 1.022 | 0.906 | 0.739 | 0.591 | 0.488 | 0.651 | 0.606 | 0.580 | 0.559 | 0.540 | 0.523 | 0.507 | 0.494 | 0.55 | -0.5 | ΔE (colour difference) ([4]; 50 μM): 0.63; ΔL (whiteness) ([4]; 50 μM): -0.6; ΔE (colour difference) ([4]; 100 μM): 2.05; ΔL (whiteness) ([4]; 100 μM): -2.0; dye transfer prevention / effect on white swatch [4]: darkening of the white swatch (negative ΔL)
